Data taken from US12325022B2, “Microfluidic device, system, and method for the study of organisms” (ECOLE POLYTECHNIQUE FEDERALE DE LAUSANNE (EPFL), priority 2014, dated 2025).
pEC50: −log10 of the molar value. Entries after “also recorded” stand apart in the source; their conditions may differ.

How the values were obtained:
[1] = tested on: N2 wild-type C. elegans worms and their embryos; assay: on-chip 5-FU treatment of worms with monitoring of embryo development in the incubator array; type: in vivo; conditions: worms treated on-chip from L4 stage with 2 mM in M9 buffer at 25° C.; embryos monitored for 12 h (array pictures at 600 minutes)
Experimental: Bar graphs are expressed as mean+SEM, *** p≤0.001.
Wild-type worms were isolated in the culture chamber at the L4 larval stage and treated on-chip with 5-FU at a concentration of 2 mM, while being cultured at 25° C. towards the adult stage. Subsequently, embryos were transferred to the incubator array and monitored for 12 h.

[2] = tested on: wild-type C. elegans; conditions: sigmoid fit; paralyzed worms between 30 and 40 minutes after tetramisole injection
Experimental: (§1) The aim of the experiment was to correlate the concentration of the drug with the number of paralyzed worms over time, and to trace a dose-response curve for this drug.
(§2) L1 specimens of wild-type C. elegans have been injected in the chip with the above-described protocol and fed them for 2-3 days to get adult worms. […] The wells were plugged in the inlet and sucked with a syringe from the outlet at total outflows between 100-200 nL/s for 40-80 minutes. The procedure was recorded in real-time for all the chambers at the same time by using a stereo-microscope. It was used a suitable ring-shape back-illumination to enhance the contrast and make the adult worms much lighter than the background.
(§3) Image analysis was done afterwards directly on the video recorded: the number of paralyzed worms per chamber were counted every 10 minutes from the beginning of the drug injection, and the total percentage of paralyzed worms per channel (1 channel=1 concentration) was calculated.

[3] = tested on: wild-type C. elegans; assay: whole plant or invertebrate; conditions: Caenorhabditis elegans, read-out: EC50 of dose-response curve (mean percentage of paralyzed worms)
Experimental: as §1, §2, §3

## O=c1[nH]cc(F)c(=O)[nH]1 [5-FU, 5-fluorouracil]
[1]
  development of embryos laid by treated worms: All embryos prematurely died; also recorded: blocked development

## c1ccc(C2CN3CCSC3=N2)cc1 (stereo not drawn) [tetramisole]
[2]
  Hill slope of dose-response curve (paralyzed worms): about 0.02 μM
[3]
  pEC50: ~4.24
